Test results from patent US20060008858A1, “Osteoblast factor(s) that regulates human prostate cancer migration to and invasion of bone” (The Regents of the University of Michigan, priority 2004, published 2006).

Tested on: LNCaP-C4-2B and VCaP human CaP cells
Experiment: Chemotaxtic migration assay (cell culture inserts)
Type: cell-based
Conditions: osteoblast-secreted proteins evaluated in migration assays; FIG. 2
Method: Conditioned medium from human primary pre-osteoblast cells was prepared by plating 5×10^5 cells in 10 ml culture medium (10% FBS DMEM medium) to 100 mm tissue culture dishes. Following 24 hrs to allow for adherence, the medium was removed and the cells washed three times with 10 ml/dish PBS. Washed cells were then incubated 72 hrs in 10 ml/dish serum-free DMEM medium supplemented with 1% (v/v) ITS+(Becton Dickenson, Bedford. Mass.) Medium collected after 72 hrs was filtered through 0.2 μm filter and used directly in in vitro invasion and migration assays with human prostate cancer cells.
Chemotaxtic migration assays were performed as described with modifications (Jeffers et al., 1996). Briefly, cells were harvested with trypsin, washed once with serum-free medium, and resuspended in serum-free DMEM medium to a concentration of 5×10^4 viable cells/ml. 25,000 cells/0.5 ml were then added to 24-well cell culture inserts with a […] pore size (Becton Dickinson, Bedford, Mass.). The inserts were placed in wells containing 0.5 ml of serum-free DMEM, 72 hr serum-free conditioned medium from human primary osteoblasts and incubated for 48 hrs in 5% CO2-95% air at 37° C. […] The total number of invading cells/filter was quantified under 10× magnification. […]

Substance | effect on CaP cell migration
IL-6: osteoblast-secreted protein, interleukin 6 | stimulatory
basic Fibroblast Growth Factor: osteoblast-secreted protein, basic fibroblast growth factor | stimulatory
